Test results: ChEMBL document CHEMBL1649549, “Stability of peroxide antimalarials in the presence of human hemoglobin” (Antimicrob Agents Chemother, 2009)

Experiments:
[1] = Stability of compound in presence of oxyhemoglobin assessed as pseudo-first order degradation rate constant at 10 uM at 20degC over 24 hrs; assay type: ADME
[2] = Stability of compound in presence water assessed as pseudo-first order degradation rate constant at 10 uM at 20degC over 24 hrs; assay type: physicochemical; details: buffer
[3] = Stability of compound in presence of […] assessed as pseudo-first order degradation rate constant at 10 uM at 20degC over 24 hrs; assay type: ADME

Row | Structure (SMILES) | Activity [1] | Activity [2] | Activity [3]
1 | O=C(O)C[C@H]1CC[C@]2(CC1)OO[C@]1(O2)C2CC3CC(C2)CC1C3 | 0.01 h⁻¹ | 0.006 h⁻¹ | 0.006 h⁻¹
2 | CO[C@H]1O[C@@H]2O[C@@]3(C)CC[C@H]4[C@H](C)CC[C@@H]([C@H]1C)[C@@]24OO3 [ARTEMETHER] | 0.007 h⁻¹ | 0.002 h⁻¹ | 0.002 h⁻¹
3 | C[C@@H]1CC[C@H]2[C@@H](C)C(=O)O[C@@H]3O[C@@]4(C)CC[C@@H]1[C@]32OO4 [ARTEMISININ] | 0.008 h⁻¹ | 0.0004 h⁻¹ | 0.003 h⁻¹
4 | C[C@H]1[C@@H](O)O[C@@H]2O[C@@]3(C)CC[C@H]4[C@H](C)CC[C@@H]1[C@@]24OO3 [ARTENIMOL] | 0.017 h⁻¹ | 0.00001 h⁻¹ | 0.004 h⁻¹
5 | CC(C)(N)CNC(=O)C[C@H]1CC[C@]2(CC1)OO[C@]1(O2)C2CC3CC(C2)CC1C3 [OZ277] | 0.01 h⁻¹ | 0.015 h⁻¹ | 0.013 h⁻¹
